Mutagenic call data for six compounds are collected here from PubChem BioAssay AID1259407 (Chemical Carcinogenesis Research Information System (CCRIS), 2018).

In the data set the test system is CCRIS mutagenicity, Ames/micronucleus/aberration tests. Nature of the data set: CCRIS mutagenicity studies.
Setting [1] is: Test System: AMES SALMONELLA TYPHIMURIUM, Strain/Indicator: TA100, Metabolic Activation: NONE, Method: STANDARD PLATE.
Setting [2] is: Test System: AMES SALMONELLA TYPHIMURIUM, Strain/Indicator: TA98, Metabolic Activation: NONE, Method: PREINCUBATION
Setting [3] is: Test System: AMES SALMONELLA TYPHIMURIUM, Strain/Indicator: TA100, Metabolic Activation: NONE, Method: PREINCUBATION
[4] abbreviates: Test System: AMES SALMONELLA TYPHIMURIUM, Strain/Indicator: TA1535, Metabolic Activation: NONE, Method: PREINCUBATION
The mark [5] stands for this setting: Test System: AMES SALMONELLA TYPHIMURIUM, Strain/Indicator: TA1537, Metabolic Activation: NONE, Method: PREINCUBATION

Active and inactive are the calls of the source. The rule behind the calls is not given here.

Consider `O[C@H]1C=Cc2c(cc3c4c(c5ccccc5cc24)-c2ccccc2-3)[C@@H]1O`, for which the mutagenic call is “active; positive” (Test System: AMES SALMONELLA TYPHIMURIUM, Strain/Indicator: TA100, Metabolic Activation: MOUSE, LIVER, S-9, 3-METHYLCHOLANTHRENE, Method: STANDARD PLATE) and “active; positive” (Test System: AMES SALMONELLA TYPHIMURIUM, Strain/Indicator: TA100, Metabolic Activation: RAT, LIVER, S-9, 3-METHYLCHOLANTHRENE, Method: STANDARD PLATE).

`Cc1ccccc1OP(=O)(Oc1ccccc1C)Oc1ccccc1C`: the mutagenic call is, setting by setting: under setting [1], “inactive; negative”; (Test System: AMES SALMONELLA TYPHIMURIUM, Strain/Indicator: TA100, Metabolic Activation: RAT, LIVER, MICROSOMES, Method: STANDARD PLATE) “active; positive”.

Take `CCCCCCCCCCO`: the mutagenic call under setting [2] is “inactive; negative”; the mutagenic call (Test System: AMES SALMONELLA TYPHIMURIUM, Strain/Indicator: TA98, Metabolic Activation: RAT, LIVER, S-9, PHENOBARBITAL AND BETA-NAPHTHOFLAVONE, Method: PREINCUBATION) is “inactive; negative”; the mutagenic call under setting [3] was “inactive; negative”; the mutagenic call (Test System: AMES SALMONELLA TYPHIMURIUM, Strain/Indicator: TA100, Metabolic Activation: RAT, LIVER, S-9, PHENOBARBITAL AND BETA-NAPHTHOFLAVONE, Method: PREINCUBATION) is “inactive; negative”; the mutagenic call (Test System: AMES SALMONELLA TYPHIMURIUM, Strain/Indicator: TA102, Metabolic Activation: NONE, Method: PREINCUBATION) was “inactive; negative”; the mutagenic call (Test System: AMES SALMONELLA TYPHIMURIUM, Strain/Indicator: TA102, Metabolic Activation: RAT, LIVER, S-9, SODIUM PHENOBARBITAL AND 5,6-BENZOFLAVONE, Method: PREINCUBATION) is “inactive; negative”. Further, the mutagenic call was “inactive; negative” (Test System: AMES SALMONELLA TYPHIMURIUM, Strain/Indicator: TA104, Metabolic Activation: NONE, Method: PREINCUBATION); “inactive; negative” (Test System: AMES SALMONELLA TYPHIMURIUM, Strain/Indicator: TA104, Metabolic Activation: RAT, LIVER, S-9, SODIUM PHENOBARBITAL AND 5,6-BENZOFLAVONE, Method: PREINCUBATION); “inactive; negative” under setting [4]; “inactive; negative” (Test System: AMES SALMONELLA TYPHIMURIUM, Strain/Indicator: TA1535, Metabolic Activation: RAT, LIVER, S-9, PHENOBARBITAL AND BETA-NAPHTHOFLAVONE, Method: PREINCUBATION); “inactive; negative” under setting [5]; “inactive; negative” (Test System: AMES SALMONELLA TYPHIMURIUM, Strain/Indicator: TA1537, Metabolic Activation: RAT, LIVER, S-9, PHENOBARBITAL AND BETA-NAPHTHOFLAVONE, Method: PREINCUBATION). Further, the mutagenic call (Test System: CHINESE HAMSTER V-79, Strain/Indicator: V-79 (HPRT)/6-THIOGUANINE, Metabolic Activation: NONE, Method: STANDARD PLATE) is “inactive; negative”; the mutagenic call (Test System: CHINESE HAMSTER V-79, Strain/Indicator: V-79 (HPRT)/6-THIOGUANINE, Metabolic Activation: RAT LIVER S-9, Method: STANDARD PLATE) is “inactive; negative”; the mutagenic call (Test System: E. COLI, Strain/Indicator: WP2UVRA/PKM101, Metabolic Activation: NONE, Method: PREINCUBATION) was “inactive; negative”; the mutagenic call (Test System: E. COLI, Strain/Indicator: WP2UVRA/PKM101, Metabolic Activation: RAT, LIVER, S-9, PHENOBARBITAL AND BETA-NAPHTHOFLAVONE, Method: PREINCUBATION) is “inactive; negative”; the mutagenic call (Test System: E. COLI, Strain/Indicator: WP2UVRA, Metabolic Activation: NONE, Method: PREINCUBATION) is “inactive; negative”; the mutagenic call (Test System: E. COLI, Strain/Indicator: WP2UVRA, Metabolic Activation: RAT, LIVER, S-9, PHENOBARBITAL AND BETA-NAPHTHOFLAVONE, Method: PREINCUBATION) was “inactive; negative”.

For `CC[C@H](C)[C@H](NC(=O)[C@@H](NC(=O)[C@H](CCC(=O)O)NC(=O)[C@H](CCSC)NC(=O)[C@H](CC(C)C)NC(=O)[C@H](CCCCN)NC(=O)[C@H](CCCNC(=N)N)NC(=O)[C@H](CC(N)=O)NC(=O)[C@H](CO)NC(=O)[C@H](Cc1c[nH]cn1)NC(=O)[C@H](C)NC(=O)[C@H](CCC(N)=O)NC(=O)[C@H](CCC(N)=O)NC(=O)[C@H](C)NC(=O)[C@H](CC(C)C)NC(=O)[C@H](CCC(N)=O)NC(=O)[C@H](CCC(=O)O)NC(=O)[C@H](C)NC(=O)[C@H](CCCNC(=N)N)NC(=O)[C@H](C)NC(=O)[C@H](CCSC)NC(=O)[C@H](CCC(=O)O)NC(=O)[C@H](CC(C)C)NC(=O)[C@@H](NC(=O)[C@H](CCC(=O)O)NC(=O)[C@H](CCCNC(=N)N)NC(=O)[C@H](CC(C)C)NC(=O)[C@H](CC(C)C)NC(=O)[C@H](Cc1c[nH]cn1)NC(=O)[C@H](Cc1ccccc1)NC(=O)[C@@H](NC(=O)[C@H](CC(C)C)NC(=O)[C@H](CC(=O)O)NC(=O)[C@H](CC(C)C)NC(=O)[C@H](CO)NC(=O)[C@@H](NC(=O)[C@@H]1CCCN1C(=O)[C@@H]1CCCN1C(=O)[C@H](CCC(=O)O)NC(=O)[C@H](CCC(=O)O)NC(=O)[C@@H](N)CO)[C@@H](C)CC)[C@@H](C)O)C(C)C)[C@@H](C)CC)C(N)=O`, the mutagenic call reads like this: under setting [2], “inactive; negative”; (Test System: AMES SALMONELLA TYPHIMURIUM, Strain/Indicator: TA98, Metabolic Activation: RAT, LIVER, S-9, PHENOBARBITAL AND 5,6-BENZOFLAVONE, Method: PREINCUBATION) “inactive; negative”; under setting [3], “inactive; negative”; (Test System: AMES SALMONELLA TYPHIMURIUM, Strain/Indicator: TA100, Metabolic Activation: RAT, LIVER, S-9, PHENOBARBITAL AND 5,6-BENZOFLAVONE, Method: PREINCUBATION) “inactive; negative”; under setting [4], “inactive; negative”; (Test System: AMES SALMONELLA TYPHIMURIUM, Strain/Indicator: TA1535, Metabolic Activation: RAT, LIVER, S-9, PHENOBARBITAL AND 5,6-BENZOFLAVONE, Method: PREINCUBATION) “inactive; negative”. Moreover, the mutagenic call is “inactive; negative” under setting [5]; “inactive; negative” (Test System: AMES SALMONELLA TYPHIMURIUM, Strain/Indicator: TA1537, Metabolic Activation: RAT, LIVER, S-9, PHENOBARBITAL AND 5,6-BENZOFLAVONE, Method: PREINCUBATION); “inactive; negative” (Test System: E. COLI, Strain/Indicator: WP2 UVRA, Metabolic Activation: NONE, Method: PREINCUBATION); “inactive; negative” (Test System: E. COLI, Strain/Indicator: WP2 UVRA, Metabolic Activation: RAT, LIVER, S-9, PHENOBARBITAL AND 5,6-BENZOFLAVONE, Method: PREINCUBATION).

As to `Nc1ccc2ncsc2c1`, the mutagenic call by setting is: under setting [3], “inactive; negative”; (Test System: AMES SALMONELLA TYPHIMURIUM, Strain/Indicator: TA100, Metabolic Activation: RAT LIVER S-9, PHENOBARBITAL AND 5,6-BENZOFLAVONE, Method: PREINCUBATION) “inactive; negative”; (Test System: AMES SALMONELLA TYPHIMURIUM, Strain/Indicator: YG1029, Metabolic Activation: NONE, Method: PREINCUBATION) “inactive; negative”; (Test System: AMES SALMONELLA TYPHIMURIUM, Strain/Indicator: YG1029, Metabolic Activation: RAT LIVER S-9, PHENOBARBITAL AND 5,6-BENZOFLAVONE, Method: PREINCUBATION) “active; positive”.

Turning to `O=CN(O)c1ccc(Oc2ccc(Cl)cc2Cl)cc1`, the mutagenic call is “inactive; negative” under setting [1] and “active; positive” (Test System: AMES SALMONELLA TYPHIMURIUM, Strain/Indicator: TA100, Metabolic Activation: RAT, LIVER, S-9, KANECLOR 500, Method: STANDARD PLATE).
